We go through 18 molecules from US12370143B2, “Compound or salt thereof and lipid particles” (FUJIFILM Corporation, priority 2018, dated 2025).

A word on the IC50: it is the midpoint of a concentration-inhibition curve.

Read-outs that look alike come from different tables or passages of the source.

Data set [1] in a line: Particle size of nucleic acid lipid particles (Luc2-siRNA). It counts as physicochemical. Conditions: compound/DSPC/cholesterol/DMG-PEG2000 50/10/38.5/1.5. As to the method:
By using the dispersion liquid of lipid particles as it was, the particle size of the lipid particles was measured using a zeta potential/particle size measurement system ELS-Z2 (Otsuka Electronics Co., Ltd.).
(§1) The compounds described in Table 2, L-α-distearoylphosphatidylcholine (trade name: COATSOME® MC-8080; NOF corporation), cholesterol (trade name: Choesterol HP; NIPPON FINE CHEMICAL CO., LTD.), and 1,2-dimyristoyl-rac-glycero-3-(methylpolyoxyethylene 2000) (hereinafter, called DMG-PEG2000) (trade name: SUNBRIGHT® GM-020; NOF corporation) were dissolved in ethanol at a molar ratio of 50/10/38.5/1.5 such that the total lipid concentration became 20 mmol/L, thereby obtaining an oil phase.
(§2) An aqueous nucleic acid solution obtained by dissolving 5 mg of Luc2-siRNA having the sequence described in Biomacromolecules (2013) 14, p. 3905 in 1 mL of sterile water was diluted with 10 mmol/L acetate buffer having a pH 4 such that the nucleic acid concentration became 19.7 μmol/L, thereby obtaining a water phase. Then, the water phase and the oil phase were mixed together by a micromixer (see JP5288254B) using a syringe pump such that the volume ratio of water phase:oil phase became 3:1 (final ratio of siRNA/lipid=339 (mol/mol)), and the mixed solution was diluted 2× with PBS, thereby obtaining a dispersion liquid of nucleic acid lipid particles. The dispersion liquid was dialyzed (Slide-A-Lyzer G2, MWCO: 10 kD, Thermo Fisher Scientific) using a phosphate buffered saline such that ethanol was removed, thereby obtaining nucleic acid lipid particles.
The particle size of the nucleic acid lipid particles was measured by the same method as that in <Preparation of lipid particles>.

A short description of data set [2]: Encapsulation rate of siRNA in nucleic acid lipid particles (Luc2-siRNA). The format is physicochemical. Conditions: compound/DSPC/cholesterol/DMG-PEG2000 50/10/38.5/1.5. As to the method:
as §1, §2
A 3 mol/L aqueous sodium acetate solution (30 μL) and 9 μL of glycogen were added to 60 μL of the lipid particles retaining nucleic acids, and then 1.5 mL of ethanol was added thereto such that only the nucleic acids were precipitated while the lipid was dissolved. Then, the supernatant was removed by centrifugation. After the precipitates were air-dried for 15 minutes or longer, water was added thereto such that the precipitates were redissolved, and the concentration thereof was measured using Nanodrop NF1000 (Thermo Fisher Scientific), thereby quantifying the total nucleic acid concentration.
The nucleic acid concentration was quantified using a Quant-iT RiboGreen RNA Assay Kit (Thermo Fisher Scientific) according to the protocol. First, a 20×TE buffer included in the above kit was diluted with water, thereby obtaining a 1×TE buffer. TE represents Tris/EDTA (ethylenediaminetetraacetic acid). In order to quantify only the nucleic acid in the outer water phase, the dispersion liquid of lipid particles retaining nucleic acids was diluted 10,000× with the 1×TE buffer.
The 10,000× diluted dispersion liquid of lipid particles (100 μL) was put in a 96-well plate, then 100 μL of a RiboGreen reagent (reagent included in the Quanti-iT Ribogreen RNA Assay Kit described above) diluted 2000× with the 1×TE buffer was added to a sample, and fluorescence (excitation wavelength: 485 nm, fluorescence wavelength: 535 nm) was measured using a plate reader Infinit EF200 (TECAN), thereby quantifying the nucleic acid concentration in the outer water phase.
By using the total nucleic acid concentration obtained through the above steps and the quantified nucleic acid concentration in the outer water phase, the nucleic acid encapsulation rate of the nucleic acid lipid particles was calculated according to the following Equation. Nucleic acid encapsulation rate (%)=(total nucleic acid concentration−nucleic acid concentration in outer water phase)/total nucleic acid concentration×100 The results are shown in Table 2.

Data set [3] concerns DMS273 cells constantly expressing Luc. Description: Target reporter protein (Luc) knockdown in cell, reporter protein assay. The format is cell-based. Conditions: Homo sapiens, DMS-273. As to the method:
The nucleic acid lipid particles prepared by the same method as that in <Preparation of nucleic acid lipid particles> by using the compounds described in Table 3 were evaluated by reporter assay by the following method.
By using pGL4.50 Luc2 (E1310 Promega), DMS273 cells (human small cell lung cancer) (European Collection of Authenticated Cell Cultures) constantly expressing Luc were prepared. RPMI (Gibco) (10% FBS (Gibco), 1% Penicillin-Streptomycin (Gibco), and 200 μg/mL Hygromycin (Wako)) was used as a culture medium. DMS273 cells (2.0×10^3) constantly expressing luciferase (Luc) were seeded in a 96-well plate and cultured in a 5% CO2 incubator for 24 hours, and then the medium was replaced. Then, 10 μL of each of the dispersion liquids of lipid particles diluted with PBS (Gibco) to yield a concentration of 1 to 1,000 nmol/L was added to the 96-well plate, and the final concentration was adjusted to 0.1 to 100 nmol/L (total amount of liquid: 110 μl). Thereafter, the cells were cultured in a 5% CO2 incubator for 24 hours, the medium was then replaced, and the cells were further cultured for 24 hours.
After the viable cell count was determined, the expression amount of Luc was quantified using a Steady Glo assay kit (Promega), and the knockdown efficiency was calculated according to the following equation. Then, the IC50 concentration at which the expression amount of Luc was knocked down to 50% was calculated.

[4] abbreviates: Luc2-siRNA lipid particles using the compound, siRNA 0.1 to 100 nmol/L, concentration at which Luc expression is knocked down to 50%, read-out: IC50.

As for `CCCCC/C=C\C/C=C\CCCCCCCCC(CCCCCCCC/C=C\C/C=C\CCCCC)OC(=O)OCCN(C)CCN` [Example 26], the “Particle size (nm)” value in data set [1] came out at 209.8 nm. Moreover, the “Nucleic acid encapsulation rate” value in data set [2] is 97%. In addition, the concentration for half-maximal inhibition (IC50) in data set [3] (setting [4]) stood at 30 nM.
With `CCCCC/C=C\C/C=C\CCCCCCCCN(CCCCCCCC/C=C\C/C=C\CCCCC)C(=O)OC1CCN(CCN(C)C)CC1` [Example 3, 1-(2-(Dimethylamino)ethyl)piperidin-4-yl di((9Z,12Z)-octadeca-9,12-dien-1-yl)carbamate], in data set [1], the “Particle size (nm)” value is 83.6 nm. The “Nucleic acid encapsulation rate” value in data set [2] worked out at 100%. Besides, the IC50 in data set [3] (setting [4]) amounted to 43 nM.
Turning to `CCCCC/C=C\C/C=C\CCCCCCCCC(CCCCCCCC/C=C\C/C=C\CCCCC)OC(=O)OCCN(CCN(C)C)C(C)C` [Example 25, 2-((2-(Dimethylamino)ethyl)(isopropyl)amino)ethyl((6Z,9Z,28Z,31Z)-heptatriaconta-6,9,28,31-tetraen-19-yl)carbonate], in data set [1], the “Particle size (nm)” value is 68.5 nm. Further, the “Nucleic acid encapsulation rate” value in data set [2] is 76%. In data set [3] (setting [4]), the IC50 came to 16 nM.
For the molecule `CCCCC/C=C\C/C=C\CCCCCCCCN(CCCCCCCC/C=C\C/C=C\CCCCC)C(=O)OCC1CCCN(C)C1` (centres unmarked) [Reference Example 2, (1-Methylpiperidin-3-yl)methyl di((9Z,12Z)-octadeca-9,12-dien-1-yl)carbamate, reference compound], the “Particle size (nm)” value in data set [1] is 118.4 nm. The “Nucleic acid encapsulation rate” value in data set [2] worked out at 85%. Besides, the IC50 in data set [3] (setting [4]) turned out to be 59 nM.
Take `CCCCCCCCC(CCCCCC)COC(=O)CCCC(CCCCCC)OC(=O)OCCN(CCO)CCN(CC)CC` (centres unmarked) [Example 102, 2-Hexyldecyl 3-ethyl-12-hexyl-6-(2-hydroxyethyl)-10-oxo-9,11-dioxa-3,6-diazahexadecan-16-oate]: in data set [1], the “Particle size (nm)” value turned out to be 147.2 nm. The “Nucleic acid encapsulation rate” value in data set [2] is reported as 70%. In data set [3] (setting [4]), the IC50 is 27 nM.
Turning to `CCCCC/C=C\C/C=C\CCCCCCCCN(CCCCCCCC/C=C\C/C=C\CCCCC)C(=O)OCCN(C)CCN(CC)CC` [Example 7, 2-((2-(Diethylamino)ethyl)(methyl)amino)ethyl di((9Z,12Z)-octadeca-9,12-dien-1-yl)carbamate], the “Particle size (nm)” value in data set [1] is listed as 98.6 nm. In addition, in data set [2], the “Nucleic acid encapsulation rate” value came to 84%. Moreover, in data set [3] (setting [4]), the IC50 was found to be 14 nM.
For the molecule `CCCCCCC(CCCC)COC(=O)CCCC(CCCCCC)OC(=O)OCCN(CCO)CCN(CC)CC` (centres unmarked) [Example 101, 2-Butyloctyl 3-ethyl-12-hexyl-6-(2-hydroxyethyl)-10-oxo-9,11-dioxa-3,6-diazahexadecan-16-oate], the “Particle size (nm)” value in data set [1] turned out to be 177.3 nm. In addition, in data set [2], the “Nucleic acid encapsulation rate” value turned out to be 68%. For the same molecule, the IC50 in data set [3] (setting [4]) turned out to be 39 nM.
For the molecule `CCCCC/C=C\C/C=C\CCCCCCCC(CCCCCCCCCC)OC(=O)OCCN(CC)CCN(C)C` (centres unmarked) [Example 33, 2-((2-(Dimethylamino)ethyl)(ethyl)amino)ethyl((19Z,22Z)-octacosa-19,22-dien-11-yl)carbonate], in data set [1], the “Particle size (nm)” value is given as 67.9 nm. The “Nucleic acid encapsulation rate” value in data set [2] was found to be 87%. Moreover, in data set [3] (setting [4]), the IC50 came out at 12 nM.
`CCCCCCCC/C=C\CCCCCCCC(=O)OCCCCCCC(CCCCCCOC(=O)CCCCCCC/C=C\CCCCCCCC)OC(=O)OCCN(CC)CCN(C)C` [Example 36, 7-(((2-((2-(dimethylamino)ethyl)(ethyl)amino)ethoxy)carbonyl)oxy)tridecane-1,13-diyldioleate] had an IC50 in data set [3] of 11 nM.
Consider `CCCCC/C=C\C/C=C\CCCCCCCCC(CCCCCCCC/C=C\C/C=C\CCCCC)OC(=O)OCCN(CCCCCCCCCCCC)CCN(C)C` [Example 53], for which the “Particle size (nm)” value in data set [1] is 81 nm. Also, the “Nucleic acid encapsulation rate” value in data set [2] is 78%. Besides, the 50% inhibitory concentration (IC50) in data set [3] (setting [4]) is 9 nM.
`CCCCC/C=C\C/C=C\CCCCCCCCN(CCCCCCCC/C=C\C/C=C\CCCCC)C(=O)OC1CCCN(CCN(C)C)C1` (centres unmarked) [Example 4, 1-(2-(Dimethylamino)ethyl)piperidin-3-yl di((9Z,12Z)-octadeca-9,12-dien-1-yl)carbamate]: the “Particle size (nm)” value in data set [1] worked out at 66.1 nm. Also, the “Nucleic acid encapsulation rate” value in data set [2] is 81%. In addition, in data set [3] (setting [4]), the 50% inhibitory concentration (IC50) is 10 nM.
As to `CCCCC/C=C\C/C=C\CCCCCCCCC(CCCCCCCC/C=C\C/C=C\CCCCC)OC(=O)OCCN(CCCC)CCN(CC)CC` [Example 39, 2-(Butyl(2-(diethylamino)ethyl)amino)ethyl((6Z,9Z,28Z,31Z)-heptatriaconta-6,9,28,31-tetraen-19-yl)carbonate], the “Particle size (nm)” value in data set [1] stood at 78.3 nm. For the same molecule, the “Nucleic acid encapsulation rate” value in data set [2] is recorded as 88%.
`CCCCCCCCCOC(=O)CCCCCCCN(CCCCCCCC(=O)OCCCCCCCCC)C(=O)OCCN(C)CCN(C)C` [Example 13, Nonyl 2,5-dimethyl-10-(8-(nonyloxy)-8-oxooctyl)-9-oxo-8-oxa-2,5,10-triazaoctadecan-18-oate]: the “Particle size (nm)” value in data set [1] is 140.3 nm. Moreover, the “Nucleic acid encapsulation rate” value in data set [2] was 88%.
With `CCCCCCC(CCCC)COC(=O)CCCCC(CCCCCC)OC(=O)OCCN(CCN(CC)CC)C(C)C` (centres unmarked) [Example 95, 2-Butyloctyl 3-ethyl-12-hexyl-6-isopropyl-10-oxo-9,11-dioxa-3,6-diazaheptadecan-17-oate], the “Particle size (nm)” value in data set [1] is listed as 95.5 nm. Also, the “Nucleic acid encapsulation rate” value in data set [2] came to 83%.
For the molecule `CCCCCCCC/C=C\CCCCCCCCOC(=O)CCCC(CCCCCC)OC(=O)OCCN(CCN(CC)CC)C(C)C` (centres unmarked) [Example 115, (Z)-octadec-9-en-1-yl 3-ethyl-12-hexyl-6-isopropyl-10-oxo-9,11-dioxa-3,6-diazahexadecan-16-oate], in data set [1], the “Particle size (nm)” value came out at 88.6 nm. For the same molecule, in data set [2], the “Nucleic acid encapsulation rate” value is 69%.
In the same order, the values of `CCCCC/C=C\C/C=C\CCCCCCCCN(CCCCCCCC/C=C\C/C=C\CCCCC)C(=O)OCCN(C)CCN1CCOCC1` [Example 5, 2-(Methyl(2-morpholinoethyl)amino)ethyl di((9Z,12Z)-octadeca-9,12-diene-1-yl)carbamate] are 73.8 nm and 78%.
With `CCCCCC(CCCCC)C(=O)OCCCCCCC(CCCCCCOC(=O)C(CCCCC)CCCCC)OC(=O)OCCN(CC)CCN(CC)CC` [Example 60, 7-(((2-((2-(Diethylamino)ethyl)(ethyl)amino)ethoxy)carbonyl)oxy)tridecane-1,13-diylbis(2-pentylheptanoate)], the half-inhibitory concentration (IC50) in data set [3] (setting [4]) stood at 1 nM.
As for `CCCCC/C=C\C/C=C\CCCCCCCCC(CCCCCCCC/C=C\C/C=C\CCCCC)OC(=O)OCCN(CCO)CCN(C)C` [Example 28], the “Particle size (nm)” value in data set [1] is listed as 76.4 nm. The “Nucleic acid encapsulation rate” value in data set [2] was 75%.
